# Literature values, collected in US20070259951A1, “Compounds, Compositions and Methods” (SMITHKLINE BEECHAM CORPORATION, priority 2003, published 2007).
# Test system: A549 cells
# Conditions: data provided by National Cancer Institute
row,Compound,GI50 [µM]
1,O=c1[nH]cc(F)c(=O)[nH]1 [5-fluorouracil],1
2,COc1cccc2c1C(=O)c1c(O)c3c(c(O)c1C2=O)C[C@@](O)(C(=O)CO)C[C@@H]3O[C@H]1C[C@H](N)[C@H](O)[C@H](C)O1 [doxorubicin],0.063
3,NC(=O)NO [hydroxyurea],500
4,CC(=O)O[C@H]1C(=O)[C@@]2(C)[C@H]([C@H](OC(=O)c3ccccc3)[C@]3(O)C[C@H](OC(=O)[C@H](O)[C@@H](NC(=O)c4ccccc4)c4ccccc4)C(C)=C1C3(C)C)[C@]1(OC(C)=O)CO[C@@H]1C[C@@H]2O [paclitaxel],0.004
